Assay results: patent US9682995B2, “Amino-substituted isothiazoles” (BAYER PHARMA AKTIENGESELLSCHAFT, priority 2013, dated 2017)

How the values were obtained:
Assay in all cases: Kinase Profiling (KINOMEscan)
Format in all cases: binding
[1] = molecular target: 456 kinases (of these 395 non-mutant kinases) (Homo sapiens, UniProt O14733); conditions: MKK7; 10 μM
[2] = molecular target: 456 kinases (of these 395 non-mutant kinases) (Homo sapiens, UniProt O75460); conditions: ERN1; 10 μM
[3] = molecular target: 456 kinases (of these 395 non-mutant kinases) (Homo sapiens, UniProt O94768); conditions: DRAK2; 10 μM
[4] = molecular target: 456 kinases (of these 395 non-mutant kinases) (Homo sapiens, UniProt O94804); conditions: LOK; 10 μM
[5] = molecular target: 456 kinases (of these 395 non-mutant kinases) (Homo sapiens, UniProt O95382); conditions: ASK2; 10 μM
[6] = molecular target: 456 kinases (of these 395 non-mutant kinases) (Homo sapiens, UniProt P00533, L858R/T790M); conditions: EGFR(L858R,T790M); 10 μM
[7] = molecular target: 456 kinases (of these 395 non-mutant kinases) (Homo sapiens, UniProt P00533, L861Q); conditions: EGFR(L861Q); 10 μM
[8] = molecular target: 456 kinases (of these 395 non-mutant kinases) (Homo sapiens, UniProt P04626); conditions: ERBB2; 10 μM
[9] = molecular target: 456 kinases (of these 395 non-mutant kinases) (Homo sapiens, UniProt P07948); conditions: LYN; 10 μM
456 kinases (of these 395 non-mutant kinases) (Homo sapiens, UniProt P07948), sequence (P07948 2-512 limits assumed, change not shown): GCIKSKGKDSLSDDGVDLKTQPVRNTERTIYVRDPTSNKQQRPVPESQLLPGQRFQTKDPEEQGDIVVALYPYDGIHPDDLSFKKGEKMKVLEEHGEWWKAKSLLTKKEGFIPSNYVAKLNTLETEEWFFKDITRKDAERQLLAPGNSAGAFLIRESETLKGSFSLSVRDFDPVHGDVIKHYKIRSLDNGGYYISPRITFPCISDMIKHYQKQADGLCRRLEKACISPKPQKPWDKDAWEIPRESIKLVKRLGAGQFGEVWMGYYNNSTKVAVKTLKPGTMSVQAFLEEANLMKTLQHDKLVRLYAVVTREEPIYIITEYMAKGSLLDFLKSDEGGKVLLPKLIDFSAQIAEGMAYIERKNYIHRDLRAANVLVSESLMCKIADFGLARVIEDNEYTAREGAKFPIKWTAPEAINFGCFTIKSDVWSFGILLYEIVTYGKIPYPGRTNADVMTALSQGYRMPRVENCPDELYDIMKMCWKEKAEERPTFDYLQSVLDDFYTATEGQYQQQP

[10] = molecular target: 456 kinases (of these 395 non-mutant kinases) (Homo sapiens, UniProt P08581); conditions: MET; 10 μM
456 kinases (of these 395 non-mutant kinases) (Homo sapiens, UniProt P08581), sequence (P08581 25-1390 limits assumed, change not shown): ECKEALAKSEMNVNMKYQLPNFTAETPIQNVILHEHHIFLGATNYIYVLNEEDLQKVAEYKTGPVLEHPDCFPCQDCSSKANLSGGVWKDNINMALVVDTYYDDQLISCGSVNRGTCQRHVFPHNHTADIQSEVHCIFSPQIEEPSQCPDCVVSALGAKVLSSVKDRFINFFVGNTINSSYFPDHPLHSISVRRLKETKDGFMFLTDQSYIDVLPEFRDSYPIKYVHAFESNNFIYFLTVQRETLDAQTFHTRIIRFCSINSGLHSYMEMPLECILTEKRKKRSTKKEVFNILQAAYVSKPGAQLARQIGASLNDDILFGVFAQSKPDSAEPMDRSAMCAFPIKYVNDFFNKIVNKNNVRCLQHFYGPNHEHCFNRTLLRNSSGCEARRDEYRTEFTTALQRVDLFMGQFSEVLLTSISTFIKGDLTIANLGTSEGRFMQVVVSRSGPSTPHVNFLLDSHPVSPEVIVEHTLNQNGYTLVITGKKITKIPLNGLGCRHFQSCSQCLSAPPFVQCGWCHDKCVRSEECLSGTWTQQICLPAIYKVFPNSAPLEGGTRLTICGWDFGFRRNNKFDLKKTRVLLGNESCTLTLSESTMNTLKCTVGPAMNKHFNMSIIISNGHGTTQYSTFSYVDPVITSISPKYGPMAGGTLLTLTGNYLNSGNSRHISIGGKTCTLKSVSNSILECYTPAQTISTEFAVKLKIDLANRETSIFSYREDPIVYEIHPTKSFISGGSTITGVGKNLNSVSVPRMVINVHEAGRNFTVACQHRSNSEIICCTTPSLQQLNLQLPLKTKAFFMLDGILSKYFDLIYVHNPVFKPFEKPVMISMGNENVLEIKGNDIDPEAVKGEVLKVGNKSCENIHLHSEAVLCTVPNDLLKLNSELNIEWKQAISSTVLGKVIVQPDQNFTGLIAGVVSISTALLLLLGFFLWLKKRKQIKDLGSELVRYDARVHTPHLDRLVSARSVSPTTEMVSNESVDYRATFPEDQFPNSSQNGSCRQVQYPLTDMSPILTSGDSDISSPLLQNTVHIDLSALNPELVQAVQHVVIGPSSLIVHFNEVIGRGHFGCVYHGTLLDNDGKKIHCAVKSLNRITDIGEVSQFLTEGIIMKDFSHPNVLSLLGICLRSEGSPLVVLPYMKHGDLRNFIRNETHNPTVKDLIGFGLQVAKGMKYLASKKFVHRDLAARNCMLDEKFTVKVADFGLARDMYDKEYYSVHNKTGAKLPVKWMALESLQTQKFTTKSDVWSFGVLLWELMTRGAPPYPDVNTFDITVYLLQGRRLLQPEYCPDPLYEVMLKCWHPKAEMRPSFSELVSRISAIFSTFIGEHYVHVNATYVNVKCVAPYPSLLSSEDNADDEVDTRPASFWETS

[11] = molecular target: 456 kinases (of these 395 non-mutant kinases) (Homo sapiens, UniProt P27361); conditions: ERK1; 10 μM
[12] = molecular target: 456 kinases (of these 395 non-mutant kinases) (Homo sapiens, UniProt P36888, K663Q); conditions: FLT3(K663Q); 10 μM
[13] = molecular target: 456 kinases (of these 395 non-mutant kinases) (Homo sapiens, UniProt P42345); conditions: MTOR; 10 μM
[14] = molecular target: 456 kinases (of these 395 non-mutant kinases) (Homo sapiens, UniProt P42681); conditions: TXK; 10 μM
[15] = molecular target: 456 kinases (of these 395 non-mutant kinases) (Homo sapiens, UniProt P45985); conditions: MEK4; 10 μM
456 kinases (of these 395 non-mutant kinases) (Homo sapiens, UniProt P45985), sequence (P45985 2-399 limits assumed, change not shown): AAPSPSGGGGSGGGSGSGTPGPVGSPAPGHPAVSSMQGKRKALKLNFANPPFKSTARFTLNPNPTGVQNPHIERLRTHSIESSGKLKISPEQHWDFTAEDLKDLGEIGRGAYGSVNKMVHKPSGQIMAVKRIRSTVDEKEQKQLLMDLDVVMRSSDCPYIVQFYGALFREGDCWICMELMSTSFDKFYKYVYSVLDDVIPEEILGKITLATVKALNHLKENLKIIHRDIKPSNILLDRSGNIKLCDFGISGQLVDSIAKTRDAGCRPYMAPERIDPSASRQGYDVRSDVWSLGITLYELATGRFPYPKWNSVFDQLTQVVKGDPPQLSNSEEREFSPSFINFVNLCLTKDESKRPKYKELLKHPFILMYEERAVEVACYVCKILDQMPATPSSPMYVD

[16] = molecular target: 456 kinases (of these 395 non-mutant kinases) (Homo sapiens, UniProt P49137); conditions: MAPKAPK2; 10 μM
[17] = molecular target: 456 kinases (of these 395 non-mutant kinases) (Homo sapiens, UniProt P49759); conditions: CLK1; 10 μM
[18] = molecular target: 456 kinases (of these 395 non-mutant kinases) (Homo sapiens, UniProt P51817); conditions: PRKX; 10 μM
[19] = molecular target: 456 kinases (of these 395 non-mutant kinases) (Homo sapiens, UniProt Q04771); conditions: ACVR1; 10 μM
456 kinases (of these 395 non-mutant kinases) (Homo sapiens, UniProt Q04771), sequence (Q04771 21-509 limits assumed, change not shown): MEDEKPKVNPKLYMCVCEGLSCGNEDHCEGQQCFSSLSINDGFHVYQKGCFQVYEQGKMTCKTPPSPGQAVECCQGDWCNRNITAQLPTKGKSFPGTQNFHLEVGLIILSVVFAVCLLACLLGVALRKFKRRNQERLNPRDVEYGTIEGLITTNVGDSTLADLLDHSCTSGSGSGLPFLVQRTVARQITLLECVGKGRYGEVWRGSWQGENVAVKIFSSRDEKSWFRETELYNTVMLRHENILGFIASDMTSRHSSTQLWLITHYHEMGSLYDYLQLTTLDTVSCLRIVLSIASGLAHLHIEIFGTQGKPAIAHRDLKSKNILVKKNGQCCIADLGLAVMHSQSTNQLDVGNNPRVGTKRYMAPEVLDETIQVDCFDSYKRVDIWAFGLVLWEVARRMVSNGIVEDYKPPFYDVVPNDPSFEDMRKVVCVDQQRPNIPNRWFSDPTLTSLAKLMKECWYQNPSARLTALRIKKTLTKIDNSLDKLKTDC

[20] = molecular target: 456 kinases (of these 395 non-mutant kinases) (Homo sapiens, UniProt Q12851); conditions: MAP4K2; 10 μM
[21] = molecular target: 456 kinases (of these 395 non-mutant kinases) (Homo sapiens, UniProt Q13131); conditions: AMPK-alpha1; 10 μM
[22] = molecular target: 456 kinases (of these 395 non-mutant kinases) (Homo sapiens, UniProt Q13555); conditions: CAMK2G; 10 μM
[23] = molecular target: 456 kinases (of these 395 non-mutant kinases) (Homo sapiens, UniProt Q15418); conditions: 10 μM
[24] = molecular target: 456 kinases (of these 395 non-mutant kinases) (Homo sapiens, UniProt Q16620); conditions: TRKB; 10 μM
456 kinases (of these 395 non-mutant kinases) (Homo sapiens, UniProt Q16620), sequence (Q16620 32-822 limits assumed, change not shown): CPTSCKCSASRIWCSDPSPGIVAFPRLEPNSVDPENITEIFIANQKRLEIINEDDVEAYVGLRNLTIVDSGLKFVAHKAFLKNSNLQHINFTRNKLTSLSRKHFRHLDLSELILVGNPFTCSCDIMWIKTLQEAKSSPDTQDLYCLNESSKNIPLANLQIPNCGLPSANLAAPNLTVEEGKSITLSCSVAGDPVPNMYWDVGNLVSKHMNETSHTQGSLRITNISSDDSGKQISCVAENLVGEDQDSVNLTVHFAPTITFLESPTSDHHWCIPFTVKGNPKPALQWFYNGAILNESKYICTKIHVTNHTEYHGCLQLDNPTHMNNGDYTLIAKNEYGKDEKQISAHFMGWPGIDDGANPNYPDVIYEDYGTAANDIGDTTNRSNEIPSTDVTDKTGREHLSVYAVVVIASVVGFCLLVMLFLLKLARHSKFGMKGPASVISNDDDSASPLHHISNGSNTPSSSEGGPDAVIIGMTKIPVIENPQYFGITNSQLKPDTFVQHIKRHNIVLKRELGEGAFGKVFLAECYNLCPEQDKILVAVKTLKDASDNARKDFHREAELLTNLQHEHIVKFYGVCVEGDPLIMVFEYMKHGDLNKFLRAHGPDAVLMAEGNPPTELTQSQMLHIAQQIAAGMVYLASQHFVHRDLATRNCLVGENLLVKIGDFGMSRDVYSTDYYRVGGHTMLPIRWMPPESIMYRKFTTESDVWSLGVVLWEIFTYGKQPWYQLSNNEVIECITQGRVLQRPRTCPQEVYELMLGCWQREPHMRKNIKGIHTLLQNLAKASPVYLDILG

[25] = molecular target: 456 kinases (of these 395 non-mutant kinases) (Homo sapiens, UniProt Q2M2I8); conditions: AAK1; 10 μM
[26] = molecular target: 456 kinases (of these 395 non-mutant kinases) (Homo sapiens, UniProt Q8NE63); conditions: HIPK4; 10 μM
[27] = molecular target: 456 kinases (of these 395 non-mutant kinases) (Homo sapiens, UniProt Q9BYP7); conditions: WNK3; 10 μM
[28] = molecular target: 456 kinases (of these 395 non-mutant kinases) (Homo sapiens, UniProt Q9H2G2); conditions: SLK; 10 μM
[29] = molecular target: 456 kinases (of these 395 non-mutant kinases) (Homo sapiens, UniProt Q9H4B4); conditions: PLK3; 10 μM
[30] = molecular target: 456 kinases (of these 395 non-mutant kinases) (Homo sapiens, UniProt Q9P286); conditions: PAK7; 10 μM
[31] = molecular target: 456 kinases (of these 395 non-mutant kinases) (Homo sapiens, UniProt Q9P289); conditions: MST4; 10 μM
456 kinases (of these 395 non-mutant kinases) (Homo sapiens, UniProt Q9P289), sequence (Q9P289 2-416 limits assumed, change not shown): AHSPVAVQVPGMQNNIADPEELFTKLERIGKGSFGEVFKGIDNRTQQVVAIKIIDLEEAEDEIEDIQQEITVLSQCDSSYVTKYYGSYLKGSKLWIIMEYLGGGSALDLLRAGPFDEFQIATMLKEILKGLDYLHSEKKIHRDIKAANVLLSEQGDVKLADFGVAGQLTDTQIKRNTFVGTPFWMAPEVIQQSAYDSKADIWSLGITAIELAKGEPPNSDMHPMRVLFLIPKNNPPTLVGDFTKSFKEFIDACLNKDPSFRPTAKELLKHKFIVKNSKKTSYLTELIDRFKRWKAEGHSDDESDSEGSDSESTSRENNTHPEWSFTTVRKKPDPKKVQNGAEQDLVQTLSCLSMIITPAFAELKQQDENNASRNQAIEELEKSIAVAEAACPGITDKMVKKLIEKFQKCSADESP

[32] = molecular target: 456 kinases (of these 395 non-mutant kinases) (Homo sapiens, UniProt Q9UQ88); conditions: CDC2L2; 10 μM

456 kinases (of these 395 non-mutant kinases) (Homo sapiens, UniProt O75460), sequence (O75460 19-977 limits assumed, change not shown): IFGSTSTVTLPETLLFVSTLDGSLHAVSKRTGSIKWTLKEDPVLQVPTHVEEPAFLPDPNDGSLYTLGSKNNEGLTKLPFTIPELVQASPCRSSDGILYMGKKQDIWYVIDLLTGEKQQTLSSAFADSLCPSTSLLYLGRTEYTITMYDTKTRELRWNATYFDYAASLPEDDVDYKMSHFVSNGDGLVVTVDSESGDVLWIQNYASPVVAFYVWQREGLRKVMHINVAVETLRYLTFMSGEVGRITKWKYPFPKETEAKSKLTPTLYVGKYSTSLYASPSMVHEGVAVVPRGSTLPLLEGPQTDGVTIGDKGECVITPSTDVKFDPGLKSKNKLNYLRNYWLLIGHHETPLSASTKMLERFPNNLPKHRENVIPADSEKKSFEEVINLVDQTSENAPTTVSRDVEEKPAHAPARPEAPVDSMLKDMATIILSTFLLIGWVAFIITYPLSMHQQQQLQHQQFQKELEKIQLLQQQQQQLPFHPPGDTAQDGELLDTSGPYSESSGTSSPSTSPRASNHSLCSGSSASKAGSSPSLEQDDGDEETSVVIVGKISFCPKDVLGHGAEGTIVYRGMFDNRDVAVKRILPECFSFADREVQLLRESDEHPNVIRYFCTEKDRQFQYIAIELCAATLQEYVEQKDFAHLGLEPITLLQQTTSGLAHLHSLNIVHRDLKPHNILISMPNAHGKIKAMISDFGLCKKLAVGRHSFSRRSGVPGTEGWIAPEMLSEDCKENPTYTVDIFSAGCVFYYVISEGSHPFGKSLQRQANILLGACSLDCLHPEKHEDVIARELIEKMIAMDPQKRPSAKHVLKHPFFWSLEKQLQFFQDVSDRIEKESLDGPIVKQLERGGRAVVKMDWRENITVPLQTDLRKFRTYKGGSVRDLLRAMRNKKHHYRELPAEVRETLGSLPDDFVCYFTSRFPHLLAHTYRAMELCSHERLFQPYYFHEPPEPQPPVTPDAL

SMILES: CCc1ccccc1NC(=O)c1c(C)nsc1Nc1cnc2cc(F)ccc2n1 [Example 20, N-(2-Ethylphenyl)-5-[(6-fluoroquinoxalin-2-yl)amino]-3-methyl-1,2-thiazole-4-carboxamide]
- % Ctrl @ 10 μM [1]: 100 % Ctrl
- % Ctrl @ 10 μM [2]: 100 % Ctrl
- % Ctrl @ 10 μM [3]: 93 % Ctrl
- % Ctrl @ 10 μM [4]: 100 % Ctrl
- % Ctrl @ 10 μM [5]: 73 % Ctrl
- % Ctrl @ 10 μM [6]: 96 % Ctrl
- % Ctrl @ 10 μM [7]: 100 % Ctrl
- % Ctrl @ 10 μM [8]: 77 % Ctrl
- % Ctrl @ 10 μM [9]: 76 % Ctrl
- % Ctrl @ 10 μM [10]: 100 % Ctrl
- % Ctrl @ 10 μM [11]: 100 % Ctrl
- % Ctrl @ 10 μM [12]: 75 % Ctrl
- % Ctrl @ 10 μM [13]: 100 % Ctrl
- % Ctrl @ 10 μM [14]: 71 % Ctrl
- % Ctrl @ 10 μM [15]: 67 % Ctrl
- % Ctrl @ 10 μM [16]: 89 % Ctrl
- % Ctrl @ 10 μM [17]: 58 % Ctrl
- % Ctrl @ 10 μM [18]: 75 % Ctrl
- % Ctrl @ 10 μM [19]: 77 % Ctrl
- % Ctrl @ 10 μM [20]: 99 % Ctrl
- % Ctrl @ 10 μM [21]: 92 % Ctrl
- % Ctrl @ 10 μM [22]: 75 % Ctrl
- % Ctrl @ 10 μM ([23]; RSK1(Kin.Dom.1-N-terminal)): 95 % Ctrl
- % Ctrl @ 10 μM ([23]; RSK1(Kin.Dom.2-C-terminal)): 86 % Ctrl
- % Ctrl @ 10 μM [24]: 90 % Ctrl
- % Ctrl @ 10 μM [25]: 68 % Ctrl
- % Ctrl @ 10 μM [26]: 97 % Ctrl
- % Ctrl @ 10 μM [27]: 100 % Ctrl
- % Ctrl @ 10 μM [28]: 95 % Ctrl
- % Ctrl @ 10 μM [29]: 92 % Ctrl
- % Ctrl @ 10 μM [30]: 94 % Ctrl
- % Ctrl @ 10 μM [31]: 100 % Ctrl
- % Ctrl @ 10 μM [32]: 85 % Ctrl
